This is an account of results in US4073786A, “2-Amino-4-hydroxy-6-hydroxymethyl-7,7-diethyl-7,8-dihydropteridine and the 7-spirocyclohexyl analogue thereof” (Burroughs Wellcome Co., priority 1975, dated 1978).

One experiment deals with Staphylococcus aureus. Nature of the experiment: Inhibitor zone test, pteridine in agar with TMP and/or SMX in the well. It counts as cell-based. The conditions noted are these: conclusion from Table 3. Here is the method: The pteridine was included in a soya peptone medium of low thymidine content (Wellcotest Sensitivity test agar) contained in a Petri dish and the other component(s) added to the well resulting from the removal of a small plug from the medium. The surface of the medium was inoculated with the test organism and then incubated. The amount of zone inhibition is shown in Table 3, wherein the numbers represent the complete zone inhibition (i.e. the number of […] from the edge of the well after about 6 × magnification) and the figures in parenthesis include the zones of partial inhibition.

Experiment [1] concerns the target hydroxymethyldihydropteridine pyrophosphokinase (HMPPS) (Escherichia coli, UniProt P26281). Briefly: Inhibition of the enzymes forming dihydropteroic acid (HMPPS ATP-γ-P32 transfer assay; synthetase pAB-C14 assay). It counts as biochemical. The conditions noted are these: E. coli extract enzymes; result of tests (a) HMPPS and (b) synthetase. On the procedure:
The inhibiting activity against HMPPS of a selected compound of formula (I) can, for instance, be tested by monitoring the transfer of the terminal phosphate of adenosinetriphosphate/ATP-γ-P^32 to `dihydropteridine`. […] Such inhibition may, for instance, be easily and simply carried out by incubating an extract of E. coli with pAB-7-C^14, ATP, Mg and `dihydropteridine`. The formation of the dihydropteroate-C^14 can be quantitatively assayed after separating the unreacted pAB substrate, for instance by chromatography. […] Preferably the value is 25μM or less, such as in the range between 2 to 12μM. Generally a value below 7μM is desirable. […]
(a) An assay for HMPPS was developed in which the transfer of the terminal phosphate of ATP-γ-P^32 to Pt could be monitored and correlated with the amount of inhibition of HMPPS by the compound under test. […]
Tubes 1 to 9 containing the amounts of components shown in the Table, were filled up to 200μl with distilled water, incubated for 60 minutes at 37° C and then chilled on ice. […] The charcoal and the filter were then radioactively counted. […]
(b) The activity of the test compound of formula (I) against `synthetase` was determined as follows, by monitoring the formation of dihydropteroate C^14. […]

The test system of a further experiment is Derm. dermatonomous. The conditions noted are these: British Pat. No. 1303171 and Application No. 36289/70; cited from earlier work.
A further experiment relates to Cl. perfringens. The settings on record: British Pat. No. 1303171 and Application No. 36289/70; cited from earlier work.

Chain of hydroxymethyldihydropteridine pyrophosphokinase (HMPPS) (P26281 whole entry): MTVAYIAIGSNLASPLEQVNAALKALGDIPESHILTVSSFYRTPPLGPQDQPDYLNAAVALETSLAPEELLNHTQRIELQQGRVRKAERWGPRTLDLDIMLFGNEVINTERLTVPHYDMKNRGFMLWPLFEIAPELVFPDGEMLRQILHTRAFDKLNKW

What is called IC50 is the concentration that gives 50% inhibition. Consider `CCC1(CC)Nc2nc(N)nc(O)c2N=C1CO` [R=CH2 OH R^1 =R^2 =Et, 2-amino-4-hydroxy-6-hydroxymethyl-7,7-diethyl-7,8-dihydropteridine], for which the “synergistic activity with TMP and/or SMX” value with Staphylococcus aureus is “synergism with TMP and SMX alone and multiple synergism with both”. In experiment [1], the IC50 was found to be 2100 nM.

Regarding `CC1=Nc2c(nc(N)[nH]c2=O)NC1(C)C` [2-amino-4-hyroxy-6-methyl-7,7-dimethyl-7,8-dihydropteridine], the bacteriostatic activity result with Derm. dermatonomous and in the experiment on Cl. perfringens was “particularly effective” each time.

For `CC1(C)Nc2nc(N)nc(O)c2N=C1CO` [2-amino-4-hydroxy-6-hydroxymethyl-7,7-dimethyl-7,8-dihydropteridine], the bacteriostatic activity entry with Derm. dermatonomous and in the experiment with Cl. perfringens was “particularly effective” each time.
